From PubChem BioAssay AID652247 (Sanford-Burnham Center for Chemical Genomics, 2013)
Activity calls are given as the source filed them. The rule behind the calls is not given here.

Biological target: NEDD8-conjugating enzyme Ubc12 (Homo sapiens) + NEDD8-activating enzyme E1 regulatory subunit (Homo sapiens) (UniProt P61081+Q13564)
Test: NEDD8 conjugation to CUL1 blockade – biochemical, TR-FRET, dose response (AID 652247)
Conditions: in vitro CUL1 neddylation

Sequence of NEDD8-conjugating enzyme Ubc12 (Homo sapiens) + NEDD8-activating enzyme E1 regulatory subunit (Homo sapiens) (P61081 whole entry, looked up): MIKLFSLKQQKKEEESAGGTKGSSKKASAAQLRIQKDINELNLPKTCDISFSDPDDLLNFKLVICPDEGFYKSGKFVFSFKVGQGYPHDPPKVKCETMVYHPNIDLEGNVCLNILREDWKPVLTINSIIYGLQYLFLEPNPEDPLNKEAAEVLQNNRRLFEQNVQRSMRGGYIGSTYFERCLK
Sequence of NEDD8-conjugating enzyme Ubc12 (Homo sapiens) + NEDD8-activating enzyme E1 regulatory subunit (Homo sapiens) (Q13564 whole entry, looked up): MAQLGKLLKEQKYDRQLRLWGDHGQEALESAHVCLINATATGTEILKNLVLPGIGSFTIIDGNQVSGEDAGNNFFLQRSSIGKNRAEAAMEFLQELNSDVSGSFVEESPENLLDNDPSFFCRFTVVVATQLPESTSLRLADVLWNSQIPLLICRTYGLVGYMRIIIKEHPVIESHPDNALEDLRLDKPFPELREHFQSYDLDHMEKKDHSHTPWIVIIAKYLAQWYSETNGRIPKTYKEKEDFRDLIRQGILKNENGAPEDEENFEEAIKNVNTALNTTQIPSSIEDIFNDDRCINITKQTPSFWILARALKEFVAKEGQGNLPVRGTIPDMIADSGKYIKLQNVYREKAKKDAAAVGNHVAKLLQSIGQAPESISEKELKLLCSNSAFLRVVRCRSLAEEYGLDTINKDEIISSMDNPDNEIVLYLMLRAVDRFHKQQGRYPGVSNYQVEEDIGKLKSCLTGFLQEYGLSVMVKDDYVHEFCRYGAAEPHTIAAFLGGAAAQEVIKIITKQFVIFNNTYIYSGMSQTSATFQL

Structure (SMILES)	IC50
CN(C)c1ccc(/C=N/NC(=O)CCc2nc3ccccc3[nH]2)cc1	inactive
CC(=O)Nc1ccc(NC(=O)c2cc(-c3ccc(C)cc3O)n[nH]2)cc1	9.68 µM
O=C(CCCc1c[nH]c2ccccc12)N1CCN(c2ccc(N3CCOCC3)nn2)CC1	inactive
CCOCCCn1c(=NC(=O)c2cccnc2)c(C(=O)OCC)cc2c(=O)n3ccccc3nc21	inactive
CCOC(=O)C1CCCN(c2nc3ccccc3nc2NS(=O)(=O)c2ccc(C)cc2)C1 (stereo unspecified)	inactive
CCN(CC)CCNC(=O)Cn1c(-c2ccccn2)nc2ccccc21	inactive
Nc1c(C(=O)Nc2ccccc2)c2nc3ccccc3nc2n1CCCN1CCOCC1	inactive
COc1ccc2cc(C(=O)N/N=C/c3cc(OC)c(OC)c(OC)c3)[nH]c2c1	inactive
CSc1ccc(/C=C2\CCn3c2nc2cc(C(=O)O)ccc2c3=O)cc1	19.4 µM
CC(=O)Nc1nc(C)c(-c2csc(Nc3ccc(S(N)(=O)=O)cc3)n2)s1	11.7 µM
O=C(O)Cn1c(=O)c(-c2ccccc2)nc2ccccc21	inactive
Cc1ccc(-c2cc(-c3ccc(C)cc3)[n+](-c3ccc(C(=O)[O-])cc3)c(-c3ccc(C)cc3)c2)cc1	inactive
N#Cc1c2c(c(NCCOCCO)n3c1nc1ccccc13)CCCC2	inactive
CC1CCN(C(=O)CN2c3cccc4cccc(c34)S2(=O)=O)CC1	inactive
C=CCN1C(=O)C(CC(=O)O)S/C1=N/N=C/c1ccc(N(CC)CC)cc1 (stereo unspecified)	inactive
O=C(Nc1cc(C(=O)Nc2ccccc2C(=O)O)cc(C(=O)Nc2ccccc2C(=O)O)c1)c1ccccc1	> 100 µM (inactive)
CC(NC(=O)C1=CC=CN2CCS(=O)(=O)N=C12)c1ccc(Cl)c(Cl)c1 (stereo unspecified)	inactive
Cc1ccc(-n2c3nc(=O)n(C)c(=O)c-3cc3ccccc32)cc1	17.9 µM
CS(=O)(=O)c1ccc2nc(NC(=O)c3ccc(Cl)nc3)sc2c1	14 µM
CCCc1c(O)c2ccccc2[nH]c1=O	inactive
Nc1c2c(=O)oc(-c3ccccc3)cc2nn1-c1ccccc1	inactive
O=C(O)c1ccc2c(=O)n3c(nc2c1)/C(=C/c1ccc(C(F)(F)F)cc1)CC3	inactive
CCOC(=O)c1cc2c(=O)n3ccccc3nc2n(CCOC)c1=NC(=O)c1ccncc1	inactive
COc1cc(-c2cc(C(=O)N3CCCCCC3)c3ccccc3n2)cc(OC)c1OC	inactive

Structure (SMILES)	IC50
COc1ccc(C[C@H]2c3cc(O)c(OC)cc3CC[N+]2(C)[O-])cc1O (stereo partly specified)	inactive
COC(=O)c1ccc2[nH]c3c(c2c1)CC(C)CC3 (stereo unspecified)	inactive
CC(=O)N1N=C2/C(=C/c3ccccc3)CCCC2C1c1ccccc1 (stereo unspecified)	inactive
CCc1ccc(-c2cnc3nc[nH]c(=O)c3n2)cc1	14.4 µM
O=c1[nH]c2ccccc2nc1-c1ccccc1	inactive
COC(=O)CSc1ccc2c(N)c(C(=O)OC)sc2c1	inactive
Cc1cccc(C)c1NC(=O)C(c1ccncc1)n1c(=O)c(-c2ccccc2)nc2ccccc21 (stereo unspecified)	inactive
O=c1oc2ccccc2cc1-c1cn2cccnc2n1	inactive
O=C(NC1CCCCC1)c1cnn2c(C(F)(F)F)cc(-c3ccco3)nc12	inactive
COc1ccccc1N(C(=O)c1snc(C(N)=O)c1N)C(C(=O)NC1CCCC1)c1ccco1 (stereo unspecified)	inactive
CC(=O)OCCc1c2ccccc2c(CCCN(C)C)c2ccccc12	11.9 µM
NNC(=O)c1ccc(CSc2cccc3cccnc23)cc1	inactive
CSc1ccc(/C=N/n2nnnc2N)cc1	inactive
CC(=O)Nc1cc(-c2ccc(N3CCN(C)CC3)cc2)cn2c(-c3ccc(F)cc3)cnc12	inactive
CN=Cc1c(NC)nc2c(C)cccn2c1=O	inactive
O=c1c[n+]([O-])c2ccccc2n1OCc1c(F)cccc1F	inactive
CC1CCN(C(=O)Nc2ccc3nsnc3c2)CC1	inactive
Cc1cc(C)n2nc(-c3cnn(C)c3C(F)(F)F)cc2n1	inactive
CCOC(=O)C1=C(COCCN)NC(C)=C(C(=O)OC)C1c1ccccc1Cl (stereo unspecified)	inactive
O=C(Nc1ccc2c(c1)OCO2)c1cc(-c2ccc(O)cc2)on1	inactive
Cc1csc(NC(=O)c2cc(=O)[nH]c3ccc(S(=O)(=O)N4CCOCC4)cc23)n1	inactive
c1ccc(C[n+]2cccc3c4ccccc4ccc32)cc1	9.52 µM
Nc1ncnc2c1ncn2[C@@H]1O[C@H](COP(=O)(O)O)[C@@H](O)[C@H]1O	inactive
COc1cccc(Cn2cc(/C=N/NC(=O)c3cc(O)cc(O)c3)c3ccccc32)c1	inactive

Structure (SMILES)	IC50
COc1cc(F)ccc1-c1cc(C(=O)Nc2ccc(NC(C)=O)cc2)[nH]n1	19.4 µM
CCOC(=O)Cn1nc(/C=C/c2ccccc2)ccc1=O	inactive
COc1ccc(CCNc2oc(-c3ccco3)nc2C#N)cc1	inactive
CCCCn1c(O)c(/C=N/NC(=O)c2ccncc2)c(=O)[nH]c1=S	inactive
c1cn2c(-c3ccoc3)cncc2n1	inactive
COC(=O)C1C(O)=C(C=Nc2cccc3ccccc23)C(=O)CC1(C)C (stereo unspecified)	inactive
Cc1ccc(C(=O)N/C(=C\c2cccs2)c2nc3ccccc3[nH]2)cc1	inactive
COc1ccc(/C=C/c2ccc(=O)n(Cc3ccccc3)n2)cc1	> 100 µM (inactive)
CCCN(CC(=O)Nc1ccccc1C)C(=O)c1ccc(-c2ccc(C(C)=O)cc2)o1	14.7 µM
Cc1cccn2c(=O)c3cc(C(=O)N4CCN(Cc5ccccc5)CC4)sc3nc12	17.9 µM
Nc1ncnc2c1ncn2C1OC(COP(=O)(O)O)C(O)C1O (stereo unspecified)	17.4 µM
COc1cc(/C=N/Nc2nc3ccccc3[nH]2)cc(Br)c1OCC(=O)N(C)C	inactive
COc1ccc(CC(=O)N/N=C\c2cc(Br)c(O)c(Br)c2)cc1	inactive
CC(C(=O)NCC1CCCO1)N(C(=O)c1snc(C(N)=O)c1N)c1cccc(F)c1 (stereo unspecified)	inactive
CCN(CC)c1ccc(/C=N/NC(=O)C2CC2)cc1	inactive
CN(C)c1ccc(/C=N/NC(=O)C2CC2c2ccccc2)cc1 (stereo unspecified)	inactive
Cc1ccc2cc3cc(C(=O)NCCN4CCOCC4)oc3nc2c1	16.9 µM
O=C(CSc1cccc2cccnc12)Nc1cc(C(=O)O)cc(C(=O)O)c1	inactive
COc1ccc(-c2cc3nc(NCCN4CCCC4)n(C)c(=O)c3s2)cc1OC	inactive
O=C1NC(=O)c2cc3ccccc3cc21	> 100 µM (inactive)
COc1ccc(-c2cc(C(=O)N3CCN(c4ccccc4O)CC3)c3ccccc3n2)cc1OC	inactive
Cc1nn(C)cc1CN(C)C(=O)c1cc2nc(-c3ccco3)cc(C(F)(F)F)n2n1	inactive
CCOc1ccc(C(=O)N/N=C/c2ccc(-c3ccc(S(=O)(=O)Nc4ncccn4)cc3)o2)cc1	inactive
COc1ccc(-n2cc(CNCc3cnc4ccccn34)c(-c3cccc(F)c3)n2)cc1	inactive

Structure (SMILES)	IC50
CC(=O)c1ccc(-c2ccc(C(=O)NCC(c3ccc(F)cc3)N3CCOCC3)o2)cc1 (stereo unspecified)	inactive
CCOc1cc(/C=C/C(=O)Nc2ccc(C(=O)NCCN(CC)CC)cc2)ccc1OCC(C)C	inactive
CCN(CC)c1ccc(/C=N/NC(=O)Cc2ccc(OC)c(OC)c2)cc1	inactive
Cc1ccc2cc3cc(C(=O)NCCCN4CCc5ccccc5C4)oc3nc2c1	10.6 µM
CN(C)CCn1c(SCc2ccccc2C#N)nc2c(sc3ccccc32)c1=O	inactive
COc1ccc(-c2cn3cccnc3n2)cc1NC(=O)c1cccs1	inactive
CCN(CC)CCOC(=O)c1ccc(N/C=C(/C#N)c2nc(-c3ccc(OC)cc3)cs2)cc1	> 100 µM (inactive)
Oc1ccc(Br)cc1C=Nc1ccc2c3c(cccc13)CC2	12.1 µM
Cc1cccc(C)c1NC(=O)C(C1CC1)n1c(=O)c(-c2ccccc2)nc2ccccc21 (stereo unspecified)	inactive
CN(C)c1ccc(/C=N/NC(=O)COc2ccccc2)cc1	inactive
Cc1c(Cc2ccccc2)c(=O)oc2c(C)c(OCc3nn[nH]n3)ccc12	> 100 µM (inactive)
Cc1cc(NS(=O)(=O)c2ccc(NC(=O)c3cc4c(=O)n5ccccc5nc4s3)cc2)nc(C)n1	18 µM
Cc1cccc(OCC(=O)N/N=C/c2ccc(N(C)C)cc2)c1	inactive
CN(C)c1ccc(-c2nc3cnccn3c2Nc2ccc3c(c2)OCCO3)cc1	inactive
Cn1nc(/C=C/c2ccccc2)ccc1=O	inactive
COc1ccc(-c2cc(=O)c3cc(O)ccc3o2)cc1	inactive
COCc1cc(C)nc(NC2CC(C)(C)NC(C)(C)C2)c1C#N	inactive
Cc1ccc2oc(-c3ccco3)cc(=O)c2c1	inactive
COC(=O)c1ccc(/C=C2\CCn3c2nc2cc(C(=O)O)ccc2c3=O)cc1	inactive
Cc1cc(-c2ccccc2)c2nncn2n1	inactive
COc1ccc2[nH]c(C(=O)N/N=C/c3cc(OC)c(OC)c(OC)c3)cc2c1	inactive
Cc1ccc(-c2cc(C(=O)NCCCN3CCOCC3)c3ccccc3n2)cc1	inactive
N#Cc1ccc(/C=C2\CCn3c2nc2cc(C(=O)O)ccc2c3=O)cc1	14.5 µM
C=CCNC(=O)c1ccc2c3n(nc2c1)-c1ccc(C)cc1CO3	inactive
